# Legend:
# [1] = test system: left atrium of guinea pig; test: Effect on contraction of an isolated left atrium of the guinea pig; details: Cavia porcellus, read-out: Contraction of left atrium of guinea pig, increase; for activation at 30 µg/mL: 3 × 10^-5 g/ml; for activation at 10 µg/mL: 10^-5 g/ml
# Protocol: 2. Effect on contraction of an isolated left atrium of the guinea pig
# A left atrium was isolated from a male guinea pig with 200-300 g of body weight soon after striking on the back of its head. The mitral orifice was fixed to the bottom of an organ bath filled with 30 ml of Krebs-Henseleit solution maintained at 35° C. A gas mixture comprising 95% of O2 and 5% of CO2 was passed through the Krebs-Henseleit solution in the organ bath. Isometric tension was measured by connecting a left auricle of heart and a transducer by a yarn. A resting tension of 0.5 g was given to the atrium, which was then electrically driven with square pulses with duration of 1 msec and voltage of 1.5 times as much as threshold in the rate of 2 Hz via dipolar platinum electrodes.
# After stabilizing the atrium for 30 minutes from its preparation, the compound dissolved in a solvent was added to the organ bath to measure its effect.
# papillary muscle of dog = test: Effect on contraction of an isolated and cross-circulated papillary muscle preparation of the dog; details: Canis lupus familiaris, read-out: Contraction of papillary muscle of dog, increase; for activation at 0.03 mg: 30 μg i.a.; for activation at 0.01 mg: 10 μg i.a.
# Protocol: 1. Effect on contraction of an isolated and cross-circulated papillary muscle preparation of the dog
# An isolated and cross-circulated papillary muscle preparation of the dog was prepared by Endo and Hashimoto's method (referred to American Journal of Physiology, 218, 1459-1463, 1970). The effect of the compound was measured by closely intraarterially injecting the compound dissolved in a solvent to the papillary muscle for the purpose of recording its effect on contraction of papillary muscle.
# [2] = Acute toxicity (LD50) for intravenous and oral administration in male mice; details: mouse, in vivo
# Protocol: Acute toxicity (LD50) for intravenous and oral administration in male mice was determined by the method of […] and Wilcoxon (referred to Journal of Pharmacology and Experimental Therapeutics, 96, 99-113, 1949).
# Anesthetized dog = test: Effects on myocardial contraction in anesthetized dogs; type: in vivo, dog (male and female mongrel dogs); details: for Anesthetized dog, CO (cardiac output) increase: aortic blood flow as index
# Protocol: 3. Effects on myocardial contraction in anesthetized dogs
# Male and female mongrel dogs with body weight of 8-15 kg were used. A dog was anesthetized by intraveneous injection of 30 mg/kg of sodium pentobarbital and practiced artificial respiration. The dog was thoractomized between fourth and fifth costa which was cut off. The pericardium was incised to expose heart. Blood flow through the aorta, which was measured with an electromagnetic blood flowmeter whose probe was attached to the ascending aorta, was used as an approximate index of cardiac output (CO). Left ventricular pressure (LVP) was measured with a Miller Catheter-tip pressure transducer and the first derivative of the LVP (dP/dt) was measured with a differentiater. Contraction of right ventricular muscle (Cont) was determined with a strain-gauge attached to the wall. Systemic blood pressure was measured from the left femoral artery. Heart rate was measured with electrocardiogram (lead II) and a cardiotachometer. The compound dissolved in a solvent was administered intravenously from a left femoral vein.
SMILES,activation at 30 µg/mL [1] [%],activation at 10 µg/mL [1] [%],activation at 0.03 mg (papillary muscle of dog) [%],activation at 0.1 mg (papillary muscle of dog; 100 μg i.a.) [%],LD50 ([2]; iv) [mg/kg],LD50 ([2]; po) [mg/kg],activation at 0.01 mg (papillary muscle of dog) [%],"Anesthetized dog, Cont (contraction of right ventricular muscle) increase (Anesthetized dog; 10 μg/kg i.v.) [%]","Anesthetized dog, dP/dt max increase (Anesthetized dog; 10 μg/kg i.v.) [%]","Anesthetized dog, CO (cardiac output) increase (Anesthetized dog; 10 μg/kg i.v.) [%]","Anesthetized dog, Cont (contraction of right ventricular muscle) increase (Anesthetized dog; 30 μg/kg i.v.) [%]","Anesthetized dog, dP/dt max increase (Anesthetized dog; 30 μg/kg i.v.) [%]","Anesthetized dog, CO (cardiac output) increase (Anesthetized dog; 30 μg/kg i.v.) [%]","Anesthetized dog, Cont (contraction of right ventricular muscle) increase (Anesthetized dog; 100 μg/kg i.v.) [%]","Anesthetized dog, dP/dt max increase (Anesthetized dog; 100 μg/kg i.v.) [%]","Anesthetized dog, CO (cardiac output) increase (Anesthetized dog; 100 μg/kg i.v.) [%]",activation at 0.003 mg (papillary muscle of dog; 3 μg i.a.) [%],"Anesthetized dog, Cont (contraction of right ventricular muscle) increase (Anesthetized dog; 3 μg/kg i.v.) [%]","Anesthetized dog, dP/dt max increase (Anesthetized dog; 3 μg/kg i.v.) [%]","Anesthetized dog, CO (cardiac output) increase (Anesthetized dog; 3 μg/kg i.v.) [%]"
"O=C1CCC(c2ccc(Nc3ncccn3)cc2)=NN1 [6-[4-(2'-pyrimidinyl)aminophenyl]-4,5-dihydro-3(2H)-pyridazinone]",66,42,5.7,15.9,–,–,–,–,–,–,–,–,–,–,–,–,–,–,–,–
"O=C1CCC(c2ccc(Nc3ccncc3)cc2)=NN1 [6-[4-(4'-pyridyl)aminophenyl]-4,5-dihydro-3(2H)-pyridazinone]",138,115,15.4,–,97,341,13.2,23,45,13,57,93,28,–,–,–,–,–,–,–
"CC1CC(c2ccc(Nc3ccncc3)cc2)=NNC1=O (stereo not drawn) [6-[4-(4'-pyridyl)aminophenyl]-4-methyl-4,5-dihydro-3(2H)pyridazinone]",109,85.9,50,–,–,–,22.6,–,–,–,21.6,29.1,8.6,64.0,64.7,26.7,–,–,–,–
"CC1CC(=O)NN=C1c1ccc(Nc2ccncc2)cc1 (stereo not drawn) [6-[4-(4'-pyridyl)aminophenyl]-5-methyl-4,5-dihydro-3(2H)pyridazinone]",97.9,86.6,–,–,–,–,38.7,75.9,73.8,26.7,–,–,–,–,–,–,28.6,13.3,14.4,14.4

# Reference: patent US4971968A, “Pyridazinone derivatives and salts thereof” (Mitsubishi Kasei Corporation, priority 1983, dated 1990)
